Structures are written as SMILES.

The target in the first experiment is T1, Fatty-acid amide hydrolase 1 (Homo sapiens, UniProt O00519).
T1 sequence (O00519 whole entry): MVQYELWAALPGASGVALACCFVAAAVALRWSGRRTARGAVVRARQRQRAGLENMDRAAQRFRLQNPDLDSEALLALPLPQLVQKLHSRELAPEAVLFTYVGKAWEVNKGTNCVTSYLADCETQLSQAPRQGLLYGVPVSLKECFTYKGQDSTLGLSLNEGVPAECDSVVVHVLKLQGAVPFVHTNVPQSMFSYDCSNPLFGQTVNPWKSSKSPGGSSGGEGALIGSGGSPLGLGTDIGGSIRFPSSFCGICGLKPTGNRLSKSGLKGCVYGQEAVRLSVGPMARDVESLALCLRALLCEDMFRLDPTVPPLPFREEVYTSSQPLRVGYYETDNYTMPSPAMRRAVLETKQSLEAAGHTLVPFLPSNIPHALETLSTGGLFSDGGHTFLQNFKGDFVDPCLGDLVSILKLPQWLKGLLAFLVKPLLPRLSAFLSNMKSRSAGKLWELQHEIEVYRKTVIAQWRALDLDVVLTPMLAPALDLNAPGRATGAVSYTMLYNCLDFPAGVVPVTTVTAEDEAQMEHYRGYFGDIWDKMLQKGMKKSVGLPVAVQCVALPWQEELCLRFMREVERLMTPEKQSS
Kind of experiment: Inhibition of human FAAH expressed in HEK293 cells using arachadonyl 7-amino 4-methyl coumarin amide as substrate by fluorimetric assay. Type of experiment: cell-based.
Regarding `Cn1ccc2cc(-c3ccc4oc(Nc5cccnc5)nc4c3)ccc21`, it took 226 nM to reach half-maximal inhibition (IC50).

Consider `Cn1ccc2cc(-c3ccc4oc(N5Cc6cccnc6C5)nc4c3)ccc21`, for which half-maximal inhibition (IC50) required 211 nM. On to `Cn1ccc2cc(-c3ccc4oc(N5Cc6ccncc6C5)nc4c3)ccc21`, for which the 50% inhibitory concentration (IC50) came out at 121 nM. `Cn1ccc2cc(-c3ccc4oc(N5CCn6cccc6C5)nc4c3)ccc21` displayed an IC50 of 42 nM.

The compound `COc1cccc(-c2ccc3oc(N4Cc5ccccc5C4)nc3c2)c1` returned an IC50 of 28 nM.

As for `COCc1ccc(-c2ccc3oc(N4Cc5ccccc5C4)nc3c2)cc1`, the IC50 was 10 nM. Same read-out and setting: with `COCc1ccc(-c2ccc3oc(N4Cc5ccccc5C4)nc3c2)cc1OC` the figure was 13 nM; with `COc1cc(-c2ccc3oc(N4Cc5ccccc5C4)nc3c2)ccn1`, 10 nM; with `c1ccc2c(c1)CN(c1nc3cc(-c4ccc5nccn5c4)ccc3o1)C2`, 14 nM.

In turn, `Cn1ncc2cc(-c3ccc4oc(N5Cc6ccccc6C5)nc4c3)ccc21` showed an IC50 of 1.2 nM. The same measure, in the same setting: the result for `Cn1ncc2c(-c3ccc4oc(N5Cc6ccccc6C5)nc4c3)cccc21` reads 3.2 nM; that for `CCn1ccc2cc(-c3ccc4oc(Nc5ccccc5)nc4c3)ccc21`, 18 nM; that for `Cn1ccc2cc(-c3ccc4nc(N5Cc6ccccc6C5)oc4c3)ccc21`, greater than 1000 nM. Compound `Cn1ccc2cc(-c3cccc4nc(N5Cc6ccccc6C5)oc34)ccc21` returned a half-maximal inhibitory concentration (IC50) greater than 1000 nM.

Take `NC(=O)c1cccc(-c2ccc3oc(NC4CCCCC4)nc3c2)c1`: the IC50 was greater than 1000 nM.

`c1ccc(-c2ccc3oc(NC4CCCCC4)nc3c2)cc1`: the IC50 is greater than 1000 nM.

Take `COc1ccc(-c2ccc3oc(NC4CCCCC4)nc3c2)cc1C`: it took 228 nM to reach half-maximal inhibition (IC50).

The compound `N#Cc1cc(-c2ccc3oc(NC4CCCCC4)nc3c2)ccc1O` had an IC50 of 54 nM.

The compound `Cn1ccc2cc(-c3ccc4oc(NC5CCCCC5)nc4c3)ccc21` displayed a half-maximal inhibitory concentration (IC50) of 911 nM. Still for that read-out and setting: the result for `c1cc2cc(-c3ccc4oc(NC5CCCCC5)nc4c3)cnc2[nH]1` reads greater than 1000 nM. Still for that read-out and setting: the result for `c1cnc2ccc(-c3ccc4oc(NC5CCCCC5)nc4c3)cc2c1` reads greater than 1000 nM; that for `CCn1ccc2cc(-c3ccc4oc(NC5CCCCC5)nc4c3)ccc21`, 207 nM; that for `c1cc2c(ccn2C2COC2)cc1-c1ccc2oc(NC3CCCCC3)nc2c1`, 579 nM. The same measure, in the same setting: the result for `NC(=O)Cn1ccc2cc(-c3ccc4oc(NC5CCCCC5)nc4c3)ccc21` reads 214 nM; that for `Cn1ncc2cc(-c3ccc4oc(NC5CCCCC5)nc4c3)ccc21`, 61 nM.

Take `Cn1ncc2c(-c3ccc4oc(NC5CCCCC5)nc4c3)cccc21`: the midpoint of inhibition, the IC50, lay at 52 nM.

`Cn1ccc2cc(-c3ccc4oc(Nc5ccccc5)nc4c3)ccc21` yielded a 50% inhibitory concentration (IC50) of 48 nM. `Cn1ccc2cc(-c3ccc4oc(Cc5ccccc5)nc4c3)ccc21` displayed a 50% inhibitory concentration (IC50) of 488 nM. Same read-out and setting: with `CN(c1ccccc1)c1nc2cc(-c3ccc4c(ccn4C)c3)ccc2o1` the figure was 68 nM; with `Cn1ccc2cc(-c3ccc4oc(Nc5ccc(F)cc5)nc4c3)ccc21`, 99 nM; with `COc1ccc(Nc2nc3cc(-c4ccc5c(ccn5C)c4)ccc3o2)cc1`, 280 nM. The same measure, in the same setting: with `Cn1ccc2cc(-c3ccc4oc(Nc5ccccn5)nc4c3)ccc21` the figure was 186 nM; with `Cn1ccc2cc(-c3ccc4oc(Nc5ccncc5)nc4c3)ccc21`, greater than 1000 nM. Still for that read-out and setting: with `CNc1nc2cc(-c3ccc4c(ccn4C)c3)ccc2o1` the figure was greater than 1000 nM; with `Cn1ccc2cc(-c3ccc4oc(N5CCCC5)nc4c3)ccc21`, 674 nM. In the case of `Cn1ccc2cc(-c3ccc4oc(N5CCOCC5)nc4c3)ccc21`, the IC50 turned out to be 784 nM.

`C[C@@H]1CN(c2nc3cc(-c4ccc5c(ccn5C)c4)ccc3o2)C[C@H](C)O1` registered a half-maximal inhibitory concentration (IC50) of 168 nM. Compound `Cn1ccc2cc(-c3ccc4oc(N5CCNCC5)nc4c3)ccc21` yielded an IC50 greater than 1000 nM.

Consider `Cn1ccc2cc(-c3ccc4oc(N5CCN(c6ccccc6)CC5)nc4c3)ccc21`, for which the half-inhibitory concentration (IC50) was 63 nM. The compound `Cn1ccc2cc(-c3ccc4oc(N5CCc6ccccc6C5)nc4c3)ccc21` displayed an IC50 of 55 nM. For the compound `Cn1ccc2cc(-c3ccc4oc(N5Cc6ccccc6C5)nc4c3)ccc21`, half-maximal inhibition (IC50) required 12 nM.

A further experiment addresses T2, Fatty-acid amide hydrolase 1 (Rattus norvegicus, UniProt P97612).
T2 sequence (P97612 whole entry): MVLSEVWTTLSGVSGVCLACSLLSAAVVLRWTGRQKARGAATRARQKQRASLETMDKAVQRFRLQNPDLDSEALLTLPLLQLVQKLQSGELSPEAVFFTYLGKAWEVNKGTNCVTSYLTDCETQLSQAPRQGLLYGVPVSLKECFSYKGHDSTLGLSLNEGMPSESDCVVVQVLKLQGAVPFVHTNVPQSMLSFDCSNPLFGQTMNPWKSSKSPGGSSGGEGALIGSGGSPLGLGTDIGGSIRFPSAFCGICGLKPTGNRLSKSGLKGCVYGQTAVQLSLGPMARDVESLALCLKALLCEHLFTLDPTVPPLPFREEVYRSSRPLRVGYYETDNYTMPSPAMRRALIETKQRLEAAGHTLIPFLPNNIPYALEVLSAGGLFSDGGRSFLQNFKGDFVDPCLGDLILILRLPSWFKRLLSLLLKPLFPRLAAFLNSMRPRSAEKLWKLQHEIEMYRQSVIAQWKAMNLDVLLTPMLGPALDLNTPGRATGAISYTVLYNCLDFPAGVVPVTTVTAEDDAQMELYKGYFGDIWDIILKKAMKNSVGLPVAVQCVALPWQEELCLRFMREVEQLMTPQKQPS
In words: Inhibition of rat FAAH expressed in HEK293 cells using arachadonyl 7-amino 4-methyl coumarin amide as substrate by fluorimetric assay. Type of experiment: cell-based.
As for `CCn1ccc2cc(-c3ccc4oc(Nc5ccccc5)nc4c3)ccc21`, it took 586 nM to reach half-maximal inhibition (IC50). Same read-out and setting: with `Cn1ccc2cc(-c3ccc4oc(N5Cc6ccccc6C5)nc4c3)ccc21` the figure was 413 nM. `O=C(Nc1ccccc1)N1CCC(Cc2cnc3ccccc3c2)CC1` yielded a half-inhibitory concentration (IC50) of 17 nM.

The target in the next experiment is T1, Fatty-acid amide hydrolase 1. In words: Reversible inhibition of full length human FAAH assessed as inhibition of 3[H]-anandamide hydrolysis preincubated for 3 hrs measured after 15 mins post substrate addition by cell-based assay.
For the compound `CCn1ccc2cc(-c3ccc4oc(Nc5ccccc5)nc4c3)ccc21`, the IC50 stood at 92 nM.

With `Cn1ccc2cc(-c3ccc4oc(N5Cc6ccccc6C5)nc4c3)ccc21`, the concentration for half-maximal inhibition (IC50) was found to be 95 nM. Same read-out and setting: with `CCCCCCCC/C=C\CCCCCCCC(=O)C(F)(F)F` the figure was 187 nM.

Test system in another experiment: not listed separately
In words: Inhibition of guinea pig brain FAAH. The arrangement: species or system Cavia porcellus.
In turn, `CCn1ccc2cc(-c3ccc4oc(Nc5ccccc5)nc4c3)ccc21` came in with an IC50 of 424 nM. On the same count and under the same terms, with `Cn1ccc2cc(-c3ccc4oc(N5Cc6ccccc6C5)nc4c3)ccc21` the figure was 423 nM; with `O=C(Nc1ccccc1)N1CCC(Cc2cnc3ccccc3c2)CC1`, 66 nM. Regarding `NC(=O)c1cccc(-c2cccc(OC(=O)NC3CCCCC3)c2)c1` [URB-597], the IC50 was determined as 26 nM.

Test system in a further experiment: not listed separately
Kind of experiment: Inhibition of rabbit brain FAAH. The arrangement: species or system Oryctolagus cuniculus.
Consider `CCn1ccc2cc(-c3ccc4oc(Nc5ccccc5)nc4c3)ccc21`, for which the 50% inhibitory concentration (IC50) is 98 nM. Same read-out and setting: with `Cn1ccc2cc(-c3ccc4oc(N5Cc6ccccc6C5)nc4c3)ccc21` the figure was 42 nM; with `O=C(Nc1ccccc1)N1CCC(Cc2cnc3ccccc3c2)CC1`, 0.8 nM; with `NC(=O)c1cccc(-c2cccc(OC(=O)NC3CCCCC3)c2)c1` [URB-597], 0.8 nM.

The values above are taken from ChEMBL document CHEMBL3217481, “2-Amino-5-arylbenzoxazole derivatives as potent inhibitors of fatty acid amide hydrolase (FAAH)” (Medchemcomm, 2012).
